Source: US10085451B2, “Synergistic herbicidal composition containing penoxsulam and bentazon” (Dow AgroSciences LLC, priority 2010, dated 2018)

Legend:
[1] = test system: Sagittaria trifolia (SAGTR); test: Postemergence herbicidal activity of mixtures in the field, broadleaf weed control; type: in vivo; conditions: 6 to 45 days after application
Method: (§1) Field trials were conducted in rice using standard herbicide small plot research methodology. Plots varied from 3×3 meter (m) to 3×10 m (width×length) with 4 replicates per treatment. The rice crop was grown using normal cultural practices for fertilization, seeding, watering, flooding and maintenance to ensure good growth of the crop and the weeds. All treatments in the field trials were applied using a CO2 backpack sprayer calibrated to apply 187 L/ha spray volume. Commercially available products of penoxsulam and bentazon were mixed in water at appropriate formulated product rates to achieve the desired rates based on a unit area of application (hectare) to achieve the desired rates as shown. Treatments were rated at 6 to 45 d after application as compared to the untreated control plants. Visual weed control was scored on a scale of 0 to 100 percent where 0 corresponds to no injury and 100 corresponds to complete kill. Colby's equation was used to determine the herbicidal effects expected from the mixtures (Colby, S. R. Calculation of the synergistic and antagonistic response of herbicide combinations. Weeds 1967, 15, 20-22.). The following equation was used to calculate the expected activity of mixtures containing two active ingredients, A and B: Expected=A+B−(A×B/100) A=observed efficacy of active ingredient A at the same concentration as used in the mixture. B=observed efficacy of active ingredient B at the same concentration as used in the mixture.

Rice (ORYSA) = test: Safening of injury in rice in the greenhouse; type: in vivo, Orysa sativa; conditions: 21 days after application
Method: (§2) Seeds of the desired test plant species were planted in 80% mineral soil/20% grit planting mixture, which typically has a pH of 7.2 and an organic matter content of approximately 3 percent, in plastic pots with a surface area of 128 square centimeters (cm^2). The growing medium was steam sterilized. The plants were grown for 7-19 days (d) in a greenhouse with an approximate 14-hour (h) photoperiod which was maintained at about 29° C. during the day and 26° C. during the night. Nutrients and water were added on a regular basis and supplemental lighting was provided with overhead metal halide 1000-Watt lamps as necessary. The plants were treated with postemergence foliar applications when they reached the second to fourth true leaf stage. All treatments were applied using a randomized complete block trial design, with 4 replications per treatment. Treatments consisted of the compounds as listed in Tables 1 and 3, each compound applied alone and in combination. Formulated amounts of penoxsulam and bentazon, were placed in 60 milliliter (mL) glass vials and dissolved in a volume of 60 mL of a water solution containing Agri-dex crop oil concentrate in a 1% v/v ratio. […] Visual weed control was scored on a scale of 0 to 100 percent where 0 corresponds to no injury and 100 corresponds to complete kill. […]

[2] = test system: Echinochloa crus-galli (ECHCG); test: Postemergence herbicidal activity of mixtures in the field, grass weed control; type: in vivo; conditions: 6 to 45 days after application
Method: as §1, with “B=observed efficacy of active ingredient B at the same concentration as used in the mixture.” left out

Cyperus iria; CYPIR = test: Postemergence herbicidal activity of mixtures in the greenhouse, sedge weed control; type: in vivo; conditions: 21 days after application
Method: as §2, with “ratio. Compound requirements are based upon a 12 mL application volume at a rate of 187 liters per hectare (L/ha). Spray solutions of the mixtures were prepared by adding the stock solutions to the appropriate amount of dilution solution to form a 12 mL spray solution with active ingredients in single and two way combinations. Formulated compounds were applied to the plant material with an overhead Mandel track sprayer equipped with […] nozzles calibrated to deliver 187 L/ha at a spray height of 18 inches (43 centimeters (cm)) above average plant canopy. The treated plants and control plants were placed in a greenhouse as described above and watered by sub-irrigation to prevent wash-off of the test compounds.” for “ratio.”

[3] = bentazon-sodium 1000 g/ha alone

CC(C)N1C(=O)c2ccccc2NS1(=O)=O [Bentazon-Sodium, 3-(1-methylethyl)-1H-2,1,3-benzothiadiazin-4(3H)-one 2,2-dioxide]
% Control SAGTR Ob ([1]; bentazon-sodium 1100 g/ha alone): 78% | % Control ORYSA Ob (Rice (ORYSA); bentazon-sodium 500 g/ha alone): 14% | % Control ORYSA Ob (Rice (ORYSA); [3]): 16% | % Control ECHCG Ob ([2]; bentazon-sodium 2000 g/ha alone): 0% | % Control CYPIR Ob (Cyperus iria; CYPIR; bentazon-sodium 500 g/ha alone): 55% | % Control CYPIR Ob (Cyperus iria; CYPIR; [3]): 72%

COc1cnc(OC)n2nc(NS(=O)(=O)c3c(OCC(F)F)cccc3C(F)(F)F)nc12 [Penoxsulam, 2-(2,2-difluoroethoxy)-N-(5,8-dimethoxy-[1,2,4]triazolo[1,5-c]pyrimidin-2-yl)-6-(trifluoromethyl)benzenesulfonamide]
% Control SAGTR Ob ([1]; penoxsulam 15 g/ha alone): 38% | % Control SAGTR Ob ([1]; penoxsulam 23 g/ha alone): 45% | % Control ECHCG Ob ([2]; penoxsulam 38 g/ha alone): 30% | % Control CYPIR Ob (Cyperus iria; CYPIR; penoxsulam 3 g/ha alone): 20%
